Experimental data from ChEMBL document CHEMBL6115006, “Discovery of potent quinone oxidoreductase 2 inhibitors to overcome TRAIL resistance of non-small cell lung cancer” (Eur J Med Chem, 2025).

Assays:
A549 = test: cells; conditions: Homo sapiens, A549, 48 h, read-out: INH
[1] = target: T1, Ribosyldihydronicotinamide dehydrogenase [quinone] (Homo sapiens, UniProt P16083)
T1 sequence (P16083 whole entry): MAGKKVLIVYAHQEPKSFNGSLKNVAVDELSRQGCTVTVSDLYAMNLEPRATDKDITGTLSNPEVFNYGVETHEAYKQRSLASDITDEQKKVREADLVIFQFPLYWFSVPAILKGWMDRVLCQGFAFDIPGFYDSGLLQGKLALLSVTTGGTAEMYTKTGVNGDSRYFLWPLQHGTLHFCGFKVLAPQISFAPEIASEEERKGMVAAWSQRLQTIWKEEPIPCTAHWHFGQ
Description: Inhibition of recombinant human NQO2 using DCPIP and EPR as substrate measured over 1 min in presence of FAD by spectrophotometric analysis

| IC50 [1] [nM] | Compound | inhibition at 10 µM (A549) [%] |
| --- | --- | --- |
| 69 | COc1cc(-c2ccc3cc(N)ccc3c2)cc(OC)c1OC | 24.3 |
| – | COc1cc(/C=C/c2ccc(N)cc2)cc(OC)c1OC | 14.7 |
| – | Oc1ccc(/C=C/c2cc(O)cc(O)c2)cc1 [RESVERATROL] | 15.4 |
